Test results taken from US20150258059A1, “ANTIMICROBIAL AND RADIOPROTECTIVE COMPOUNDS” (BioDiem, Ltd, priority 2001, published 2015).
Where two headings read alike, the source gives them in different places.

Columns and labels:
Assay type in all cases: cell-based
[1] = test system: Conditional pathogenic enterobacteria gram-negative aerobic bacilli; further: key: + sensitive strains; + moderately sensitive strains; − stable strains
[2] = test system: Pseudomonas aeruginosa B-601; experiment: Sensitivity of strains: suppression of growth; details: Compound (1) 1.0%; antibiotics disc method
Escherichia coli M-17 = experiment: Sensitivity of strains: suppression of growth; details: Compound (1) 1.0%; antibiotics disc method
Escherichia coli B-683 = experiment: Sensitivity of strains: suppression of growth; details: Compound (1) 1.0%; antibiotics disc method
Escherichia coli B-65 = experiment: Sensitivity of strains: suppression of growth; details: Compound (1) 1.0%; antibiotics disc method
[3] = test system: Enterobacter aerogenes B-679; experiment: Sensitivity of strains: suppression of growth; details: Compound (1) 1.0%; antibiotics disc method
[4] = test system: Enterobacter aerogenes B-687; experiment: Sensitivity of strains: suppression of growth; details: Compound (1) 1.0%; antibiotics disc method
[5] = test system: Salmonella paratyphi M-16469; experiment: Sensitivity of strains: suppression of growth; details: Compound (1) 1.0%; antibiotics disc method
Acinetobacter B-681 = experiment: Sensitivity of strains: suppression of growth; details: Compound (1) 1.0%; antibiotics disc method
Acinetobacter B-676 = experiment: Sensitivity of strains: suppression of growth; details: Compound (1) 1.0%; antibiotics disc method
Acinetobacter B-677 = experiment: Sensitivity of strains: suppression of growth; details: Compound (1) 1.0%; antibiotics disc method
Alkaligenes sp. B-689 = experiment: Sensitivity of strains: suppression of growth; details: Compound (1) 1.0%; antibiotics disc method
Alkaligenes sp. B-667 = experiment: Sensitivity of strains: suppression of growth; details: Compound (1) 1.0%; antibiotics disc method
[6] = test system: Yersinia pseudotuberculosis; details: Compound (1) 1.0%; antibiotics disc method
[7] = test system: Klebsiella pneumoniae M-A21; experiment: Sensitivity of strains: suppression of growth; details: Compound (1) 1.0%; antibiotics disc method
[8] = test system: Klebsiella pneumoniae M-248; experiment: Sensitivity of strains: suppression of growth; details: Compound (1) 1.0%; antibiotics disc method
[9] = test system: Corynebacterium diphtheriae B-670; experiment: Sensitivity of strains: suppression of growth; details: Compound (1) 1.0%; antibiotics disc method
Bacillus sp. B-575 = experiment: Sensitivity of strains: suppression of growth; further: key: + sensitive strains; + moderately sensitive strains; − stable strains
[10] = test system: Neisseria meningitidis M-6231; experiment: Sensitivity of strains: suppression of growth; details: Compound (1) 1.0%; antibiotics disc method
[11] = test system: Neisseria meningitidis M-A72; experiment: Sensitivity of strains: suppression of growth; details: Compound (1) 1.0%; antibiotics disc method
[12] = test system: Staphylococcus aureus M-12159; experiment: Sensitivity of strains: suppression of growth; details: Compound (1) 1.0%; antibiotics disc method
[13] = test system: Staphylococcus aureus M-209; experiment: Sensitivity of strains: suppression of growth; details: Compound (1) 1.0%; antibiotics disc method
[14] = test system: Staphylococcus aureus B-685; experiment: Sensitivity of strains: suppression of growth; details: Compound (1) 1.0%; antibiotics disc method
[15] = test system: Staphylococcus aureus B-674; experiment: Sensitivity of strains: suppression of growth; details: Compound (1) 1.0%; antibiotics disc method
[16] = test system: Staphylococci epidermidis D-513; experiment: Sensitivity of strains: suppression of growth; details: Compound (1) 1.0%; antibiotics disc method
[17] = test system: Staphylococcus epidermidis BK-30; experiment: Sensitivity of strains: suppression of growth; details: Compound (1) 1.0%; antibiotics disc method
[18] = test system: γ-hemolytic streptococcus B-672; experiment: Sensitivity of strains: suppression of growth; details: Compound (1) 1.0%; antibiotics disc method
[19] = test system: β-hemolytic streptococcus B-624; experiment: Sensitivity of strains: suppression of growth; details: Compound (1) 1.0%; antibiotics disc method
[20] = test system: Citrobacter diversus B-678; experiment: Sensitivity of strains: suppression of growth; details: Compound (1) 1.0%; antibiotics disc method
[21] = test system: Shigella flexneri M-2A6907; experiment: Sensitivity of strains: suppression of growth; details: Compound (1) 1.0%; antibiotics disc method
[22] = test system: Salmonella typhimurium M-727; experiment: Sensitivity of strains: suppression of growth; details: Compound (1) 1.0%; antibiotics disc method

Measured: Suppression of Growth (+/−)

polymixin [Antibiotic 9]
+: [2] | Escherichia coli M-17 | Escherichia coli B-683 | Escherichia coli B-65 | [3] | [4] | Alkaligenes sp. B-667 | [13]
−: [1] | [5] | Acinetobacter B-681 | Acinetobacter B-676 | Acinetobacter B-677 | Alkaligenes sp. B-689 | [6] | [7] | [8] | [9] | Bacillus sp. B-575 | [10] | [11] | [12] | [14] | [15] | [16] | [17] | [18] | [19]

CN(C)[C@@H]1C(=O)C(C(N)=O)=C(O)[C@@]2(O)C(=O)C3=C(O)c4c(O)cccc4[C@@](C)(O)[C@H]3C[C@@H]12 [Antibiotic 13, tetracycline]
+: [2] | Escherichia coli M-17 | Escherichia coli B-683 | Escherichia coli B-65 | [9] | Bacillus sp. B-575 | [15]
−: [3] | [4] | Acinetobacter B-681 | Acinetobacter B-676 | Acinetobacter B-677 | Alkaligenes sp. B-689 | Alkaligenes sp. B-667 | [6] | [7] | [8] | [10] | [11] | [12] | [13] | [14] | [16] | [17] | [18] | [19]

O=C(N[C@H](CO)[C@H](O)c1ccc([N+](=O)[O-])cc1)C(Cl)Cl [Antibiotic 7, levomicethin]
+: [2] | Escherichia coli M-17 | Escherichia coli B-683 | Escherichia coli B-65 | [21] | Alkaligenes sp. B-689 | Bacillus sp. B-575 | [15]
−: [1] | [3] | [4] | [20] | [22] | Acinetobacter B-681 | Acinetobacter B-676 | Acinetobacter B-677 | Alkaligenes sp. B-667 | [6] | [7] | [8] | [10] | [11] | [12] | [13] | [14] | [16] | [17] | [18] | [19]

CC1(C)S[C@@H]2[C@H](NC(=O)[C@H](N)c3ccccc3)C(=O)N2[C@H]1C(=O)O [Antibiotic 2, ampicillin]
−: [1] | [3] | [4] | [22] | Acinetobacter B-681 | Acinetobacter B-676 | Acinetobacter B-677 | Alkaligenes sp. B-689 | Alkaligenes sp. B-667 | [6] | [7] | [8] | Bacillus sp. B-575 | [10] | [11] | [12] | [13] | [14] | [15]
+: [2] | Escherichia coli M-17 | Escherichia coli B-683 | Escherichia coli B-65 | [20] | [16] | [17] | [18] | [19]

NC[C@H]1O[C@H](O[C@H]2[C@H](O)[C@@H](O[C@H]3O[C@H](CO)[C@@H](O)[C@H](N)[C@H]3O)[C@H](N)C[C@@H]2N)[C@H](O)[C@@H](O)[C@@H]1O [Antibiotic 5, kanamycin]
+: [2] | Escherichia coli M-17 | Escherichia coli B-683 | Escherichia coli B-65 | [20] | Alkaligenes sp. B-689 | [12] | [13] | [14]
−: [1] | [3] | [4] | Acinetobacter B-681 | Acinetobacter B-676 | Acinetobacter B-677 | Alkaligenes sp. B-667 | [6] | [7] | [8] | [9] | [10] | [11] | [15] | [16] | [17] | [18] | [19]

CC1(C)S[C@@H]2[C@H](NC(=O)C(C(=O)O)c3ccccc3)C(=O)N2[C@H]1C(=O)O (stereo partly shown) [Antibiotic 4, carbenicillin]
−: [1] | [3] | [4] | [20] | Acinetobacter B-681 | Acinetobacter B-676 | Acinetobacter B-677 | Alkaligenes sp. B-689 | Alkaligenes sp. B-667 | [6] | [7] | [8] | [9] | Bacillus sp. B-575; Compound (1) 1.0%, antibiotics disc method | [10] | [11] | [15] | [18]
+: [2] | Escherichia coli M-17 | Escherichia coli B-683 | Escherichia coli B-65 | [12] | [13] | [14] | [16] | [17] | [19]
